The text below walks through data of patent US20260242478A1, “ANTIBODIES FOR TARGETING PSMA AND CD28 AND USES THEREOF” (Janux Therapeutics, Inc., priority 2023, published 2026).

As a reminder, the kon is the second-order rate constant of association. Broadly, the Kd is the concentration at which binding is half-saturated.

Where no end group is shown, it is not given here.

Test [1] has as its system anti-CD28 scFv (SEQ ID NO: 9). As to the kind of experiment: Kinetic binding of anti-CD28 scFv to peptides, bio-layer interferometry (Octet RED96). As to conditions: 200 nM peptide loaded. On the procedure:
(§1) Briefly, streptavidin biosensors were loaded with biotinylated peptides and baselined in buffer. […] After a short association period, sensors were transferred into buffer and the dissociation of bound anti-CD28 scFv was measured. The timing and steps of the experiment are shown in the accompanying table. Association and dissociation signals were recorded in real time and analyzed using a 1:1 binding model within the instrument software. Analysis using a 1:1 binding model enabled the calculation of the on and off rate constants as well as affinity, KD.
as §1, with “KD. FIGS. 70A-70F illustrate kinetic binding of anti-CD28 scFv binding to peptides as measured by Octet. FIGS. 70G-70U illustrate kinetic binding of peptides to the anti-CD28 scFv as measured by Octet.” for “KD.”

The subject of a further test is PSMA Fab. As to the kind of experiment: Phage binding ELISA, PSMA Fab, with or without PSMA antigen (peptide-179 and peptide-180 libraries). As to conditions: peptide-180 library clonal phage; background (no Fab). The method, then: (§2) Once the phage optimization libraries were completed, phage libraries were bio-panned using PSMA Fab loaded beads. Multiple rounds of panning were performed where bacteriophage was allowed to bind to PSMA Fab loaded beads. washed. eluted, and amplified. After panning, phage infected bacteria were plated out and colonies picked into 96 well blocks. Clonal phage was then amplified and separated from bacterial cells via centrifugation. Phage containing supemnatants were tested in binding ELISAs against PSMA Fab coated plates in the presence or absence of saturating concentrations of PSMA antigen. Phage able to bind PSMA Fab were selected for sequence analysis if the binding signal was reduced in the presence of PSMA.
Clonal phage were harvested as crude supernatants and screened via standard ELISAs. Briefly, biotinylated PSMA Fab was captured on neutravidin coated plates. Prior to the addition of clonal phage. wells were incubated with blocking buffer and PSMA antigen or blocking buffer alone. Without washing or aspirating, clonal phage supernatants were then added to the wells and incubated for a short time. Wells were then washed followed by detection of bound phage using a horse radish conjugated anti-M13 antibody. Clonal phage of interest were then sent for sequence analysis.
as §2, with “beads, washed,” for “beads. washed.”, “supernatants” for “supemnatants”
On the technique in general: An ELISA detects its analyte on a solid surface through an enzyme-linked reagent.

[2] abbreviates: Table 34, CD28 scFv titrated 100-12.5 nM.
The mark [3] stands for this setting: Table 36, anti-CD28 scFv titrated 100-12.5 nM.

PSMA Fab, sequence (as listed by the source): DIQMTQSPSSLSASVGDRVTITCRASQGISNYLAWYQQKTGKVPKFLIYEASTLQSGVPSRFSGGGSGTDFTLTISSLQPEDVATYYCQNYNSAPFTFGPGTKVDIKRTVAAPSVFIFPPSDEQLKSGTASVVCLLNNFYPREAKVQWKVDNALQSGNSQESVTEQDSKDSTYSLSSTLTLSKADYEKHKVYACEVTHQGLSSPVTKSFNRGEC
PSMA Fab, sequence (as listed by the source): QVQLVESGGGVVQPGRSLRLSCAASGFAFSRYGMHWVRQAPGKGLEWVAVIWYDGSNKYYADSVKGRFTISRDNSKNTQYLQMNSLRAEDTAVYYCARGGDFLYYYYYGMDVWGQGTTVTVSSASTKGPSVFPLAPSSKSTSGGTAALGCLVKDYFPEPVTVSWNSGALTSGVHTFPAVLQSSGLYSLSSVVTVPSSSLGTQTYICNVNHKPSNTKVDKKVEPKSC
anti-CD28 scFv (SEQ ID NO: 9), sequence (as listed by the source): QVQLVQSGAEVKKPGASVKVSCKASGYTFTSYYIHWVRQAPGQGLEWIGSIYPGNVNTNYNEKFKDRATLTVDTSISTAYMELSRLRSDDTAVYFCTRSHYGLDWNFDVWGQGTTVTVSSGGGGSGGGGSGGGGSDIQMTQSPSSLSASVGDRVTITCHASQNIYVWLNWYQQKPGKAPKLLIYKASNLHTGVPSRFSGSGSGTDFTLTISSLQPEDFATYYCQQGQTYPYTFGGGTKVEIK

In test [1] (setting [2]), GYCHYWGDMVMWCG [Peptide-12] came in with a kdis of 0.00167 s⁻¹ and a kon of 98700 M⁻¹ s⁻¹.
For the substance MDWCPIDLWNECFF [Peptide-31], in test [1] (setting [3]), the Kd amounted to 71.8 nM, the kdis worked out at 0.00369 s⁻¹ and the kon was found to be 51400 M⁻¹ s⁻¹.
For MDWCPIHLWHVCFN [Peptide-32], in that order: 49.9 nM, 0.00295 s⁻¹ and 59100 M⁻¹ s⁻¹.
With MDWCPIYLWSECFN [Peptide-33], in test [1] (setting [3]), the dissociation constant (Kd) is 52.8 nM, the kdis is 0.00153 s⁻¹ and the kon was 29000 M⁻¹ s⁻¹.
For MDWCPLHMWHECFS [Peptide-35], in that order: 127 nM, 0.00497 s⁻¹ and 39000 M⁻¹ s⁻¹.
For MDWCPLYLWNECFN [Peptide-36], in that order: 68.7 nM, 0.00252 s⁻¹ and 36700 M⁻¹ s⁻¹.
Turning to MDWCPRDLWDLCFA [Peptide-37], in test [1] (setting [3]), the affinity, expressed as Kd, was 97.8 nM; the kdis amounted to 0.00351 s⁻¹; the kon amounted to 35900 M⁻¹ s⁻¹.
For MDWCPRDLWHECFA [Peptide-38], in that order: 92.3 nM, 0.00277 s⁻¹ and 30000 M⁻¹ s⁻¹.
For MDWCPRDLWHLCFS [Peptide-39], in that order: 51.9 nM, 0.00265 s⁻¹ and 51100 M⁻¹ s⁻¹.
For MDWCPRDLWSECFF [Peptide-40], in that order: 79.9 nM, 0.0031 s⁻¹ and 38800 M⁻¹ s⁻¹.
For the substance MDWCPRDMWDECFA [Peptide-42], in test [1] (setting [3]), the Kd was determined as 152 nM, the kdis came to 0.00433 s⁻¹ and the kon worked out at 28400 M⁻¹ s⁻¹.
For MDWCPRDMWSECFA [Peptide-43], in test [1] (setting [3]), the Kd stood at 192 nM, the kdis is 0.0032 s⁻¹ and the on-rate constant (kon) was determined as 16700 M⁻¹ s⁻¹.
For MDWCPRDMWSVCFS [Peptide-44], in that order: 374 nM, 0.00812 s⁻¹ and 21700 M⁻¹ s⁻¹.
Take “Phage-2835 (VAKLCTPAWMCSAM; not fully specified; cysteine pairing not given here)”: in the test on PSMA Fab, the “Phage binding ELISA Background signal” value is 0.0643.
Regarding “Phage-2836 (DWKLCKPTWMCESL; not fully specified; cysteine pairing not given here)”, the “Phage binding ELISA Background signal” value with PSMA Fab worked out at 0.0582.
Regarding “Phage-2837 (VDRWCTPPWMCDWQ; cysteine pairing not given here; also: large carrier left off)”, in the test with PSMA Fab, the “Phage binding ELISA Background signal” value is reported as 0.0583.
Still for that read-out and setting: to “Phage-2838 (HPKLCTPEWMCVIQ; not fully specified; cysteine pairing not given here)” belongs 0.0666; to “Phage-2839 (DSHWCMPVWMCMGL; not fully specified; cysteine pairing not given here)”, 0.0737.
Same read-out and setting: with “Phage-2840 (EPQWCIPKWMCDHM; not fully specified; cysteine pairing not given here)” the figure was 0.0612.
On the same count and under the same terms, to “Phage-2841 (ESIRCTPAWMCVEM; not fully specified; cysteine pairing not given here)” belongs 0.0625; to “Phage-2842 (PEVMCRPVWMCLGF; not fully specified; cysteine pairing not given here)”, 0.0609; to “Phage-2843 (MLPICKPDWMCAGF; not fully specified; cysteine pairing not given here)”, 0.0724.
Consider “Phage-2844 (VVAMCKPAWMCAGL; not fully specified; cysteine pairing not given here)”, for which, in the test with PSMA Fab, the “Phage binding ELISA Background signal” value came to 0.0591.
The same measure, in the same setting: with “Phage-2845 (WDMLCRPAWMCEGF; not fully specified; cysteine pairing not given here)” the figure was 0.0711; with “Phage-2846 (WEVRCVPEWMCVGF; not fully specified; cysteine pairing not given here)”, 0.0615.
The same measure, in the same setting: with “Phage-2847 (WMPRCVPEWMCAGF; not fully specified; cysteine pairing not given here)” the figure was 0.1667; with “Phage-2848 (VMTVCKPAWMCTGF; not fully specified; cysteine pairing not given here)”, 0.1338.
Same read-out and setting: to “Phage-2849 (VFPICKPSWMCVGM; not fully specified; cysteine pairing not given here)” belongs 0.0918.
With “Phage-2850 (VNIRCEPAWMCMGF; not fully specified; cysteine pairing not given here)”, the “Phage binding ELISA Background signal” value in the test on PSMA Fab is on record as 0.0727.
On the same count and under the same terms, with “Phage-2851 (DMRLCVPEWMCLGL; not fully specified; cysteine pairing not given here)” the figure was 0.0889.
The same measure, in the same setting: to “Phage-2852 (VMPLCKPAWMCGGF; not fully specified; cysteine pairing not given here)” belongs 0.0869.
The same measure, in the same setting: to “Phage-2853 (MLPLCVPAWMCSGF; not fully specified; cysteine pairing not given here)” belongs 0.061; to “Phage-2854 (VHIMCKPAWMCLGF; not fully specified; cysteine pairing not given here)”, 0.0917; to “Phage-2855 (WEMKCIPEWMCRGF; cysteine pairing not given here; also: large carriers left off)”, 0.0794.
Take “Phage-2856 (VQRMCEPSWMCFGF; not fully specified; cysteine pairing not given here)”: in the test with PSMA Fab, the “Phage binding ELISA Background signal” value amounted to 0.0631.
The same measure, in the same setting: with “Phage-2857 (LERACVPSWMCTGF; not fully specified; cysteine pairing not given here)” the figure was 0.0649; with “Phage-2858 (TQAMCKPAWMCQGF; not fully specified; cysteine pairing not given here)”, 0.0585.
On the same count and under the same terms, to “Phage-2859 (WEFVCKPEWMCTGF; not fully specified; cysteine pairing not given here)” belongs 0.0551; to “Phage-2860 (EWILCKPAWMCDGL; not fully specified; cysteine pairing not given here)”, 0.051; to “Phage-2861 (WDRLCIPAWMCSGF; not fully specified; cysteine pairing not given here)”, 0.0903.
Still for that read-out and setting: with “Phage-2862 (TGAYCVPQWMCSGF; not fully specified; cysteine pairing not given here)” the figure was 0.0638; with “Phage-2863 (FNVMCRPAWMCDFL; not fully specified; cysteine pairing not given here)”, 0.1545; with Phage-2864 (IETWCVPRWMCEGF), 0.0693.
For Phage-2865 (MSPLCKPVWMCAGF), the “Phage binding ELISA Background signal” value in the test with PSMA Fab is 0.0586.
On the same count and under the same terms, to Phage-2866 (TSPACVPSWMCVGF) belongs 0.0552.
Still for that read-out and setting: with Phage-2867 (VLPMCSPPWMCIGL) the figure was 0.0631; with Phage-2868 (EPIRCVPQWMCVGF), 0.0882.
Still for that read-out and setting: with Phage-2869 (WPQLCVPMWMCAGL) the figure was 0.1456.
